Test results taken from US20230141284A1, “CANCER THERAPEUTIC METHOD” (ONO PHARMACEUTICAL CO., LTD., priority 2020, published 2023).
Where a name gives a salt, the structure may show the parent alone.

How the values were obtained:
[1] = test system: IRF (Interferon Regulatory Factor) pathway; assay: Effect on IRF (Interferon Regulatory Factor) pathway, Quanti-luc reporter cells; type: cell-based; conditions: activation of the IRF pathway, luminescence, about 24 hours incubation
Experimental: The cells mainly described at lines 12-20 of the right column on page 183 in Mol Immunol. 2017, Vol. 90, p. 182-189 were suspended in RPMI medium to prepare 2×10^6 cells/mL of cell suspension. 50 μL of the cell suspensions were dispensed into a 96-well plate, to which 50 μL of 6 to 20,000 nmol/L compound solutions were added. After adding the compound, the mixture thereof was incubated at 37° C. for about 24 hours. After incubation, 10 μL of cell suspensions were collected from each well, which were mixed with 50 μL of Quanti-luc (Invivogen). Then, the activation of the IRF pathway was measured by detecting luminescence using a microplate reader (Molecular Devices).

[2] = Conversion of a prodrug to its active body (Compound B) in mouse plasma; type: in vitro ADME; conditions: 1 μmol/L, 37° C., 60 minutes
Experimental: (§1) The solutions of the example compounds in Table 2 below (50 μmol/L, 50% acetonitrile with 5% DMSO) were added to plasma (245 μL), respectively, such that the final concentrations thereof become 1 μmol/L. After keeping them the temperature at 37° C. for 60 minutes, 40 μL of the reaction solutions were taken therefrom, and added to 200 μL of acetonitrile/ethanol (7:3) containing Candesartan (internal standard).
(§2) The concentration of the compound prepared in Example 3 (Compound B) in the plasma resulting from the above reaction was analyzed by LC-MS/MS according to the following method.
(§3) The whole amount was transferred to a filter plate for protein removal and filtered by suction, and the filtrate thereof was diluted 2-fold with water. [LC column] Shim-pack XR-ODSII 2.0 mm ID×75 mm (Shimadzu Corporation) [LC condition] Column temperature: 40° C. Mobile phase: A: 0.2% formic acid in 5 mM ammonium acetate solution; and
(§4) [MS conditions] Electrospray, positive mode, multiple reaction monitoring; MS monitor ion: Compound B: m/z353.0→m/z311.2, DP: 80, CE: 35; and Candesartan (internal standard): m/z309.1→m/z163.0, DP: 71, CE: 21.
(§5) A regression formula was calculated from the peak area ratio (peak area of Compound B/peak area of Candesartan) of the real sample and the standard sample for the calibration curve in the same matrix, and the peak area ratio of the real sample was substituted into the regression formula to calculate the quantitative value. 60 minutes later, the concentration of Compound B in the sample was compared, and the conversion rate (%) thereof was calculated using the following formula:
(§6) Conversion rate (%)=Concentration of Compound B in the sample after 60 minutes (μmol/L)×100

[3] = Conversion of a prodrug to its active body (Compound B) in human plasma; type: in vitro ADME; conditions: 1 μmol/L, 37° C., 60 minutes
Experimental: as §1, §2, §3, §4, §5, §6

EC50 [1] | Plasma conversion rate Mouse [2] | Plasma conversion rate Human [3] | SMILES
0.08 µM | – | – | NC(=O)c1cc(-c2ncc(-c3cn[nH]c3)c3onc(N)c23)c(F)cc1N [Example 4(5), 2-amino-5-(3-amino-7-(1H-pyrazol-4-yl)isoxazolo[4,5-c]pyridin-4-yl)-4-fluorobenzamide hydrochloride]
0.04 µM | – | – | CCOC(=O)c1cc(-c2ncc(-c3cn[nH]c3)c3onc(N)c23)c(F)cc1N [Example 4(6), ethyl 2-amino-5-(3-amino-7-(1H-pyrazol-4-yl)isoxazolo[4,5-c]pyridin-4-yl)-4-fluorobenzoate hydrochloride]
0.02 µM | – | – | CCC(=O)c1cc(-c2ncc(-c3cn[nH]c3)c3onc(N)c23)c(F)cc1N [Example 4(7), 1-(2-amino-5-(3-amino-7-(1H-pyrazol-4-yl)isoxazolo[4,5-c]pyridin-4-yl)-4-fluorophenyl)propan-1-one hydrochloride]
0.02 µM | – | – | CCNC(=O)c1cc(-c2ncc(-c3cn[nH]c3)c3onc(N)c23)c(F)cc1N [Example 4(8), 2-amino-5-(3-amino-7-(1H-pyrazol-4-yl)isoxazolo[4,5-c]pyridin-4-yl)-N-ethyl-4-fluorobenzamide hydrochloride]
0.1 µM | – | – | CNC(=O)c1cc(-c2ncc(-c3cn[nH]c3)c3onc(N)c23)ccc1N [Example 4(15), 2-amino-5-(3-amino-7-(1H-pyrazol-4-yl)isoxazolo[4,5-c]pyridin-4-yl)-N-methylbenzamide hydrochloride]
1 µM | – | – | CSc1cc(-c2ncc(-c3cn[nH]c3)c3onc(N)c23)c(Cl)cc1N [Example 4(16), 4-(4-amino-2-chloro-5-(methylthio)phenyl)-7-(1H-pyrazol-4-yl)isoxazolo[4,5-c]pyridin-3-amine hydrochloride]
0.09 µM | – | – | CSc1cc(-c2ncc(-c3cn[nH]c3)c3onc(N)c23)c(F)cc1N [Example 4, 4-(4-amino-2-fluoro-5-(methylthio)phenyl)-7-(1H-pyrazol-4-yl)isoxazolo[4,5-c]pyridin-3-amine hydrochloride]
– | + + + | + + + | CNCC(=O)OCc1cccnc1N(C)C(=O)OC(C)n1cc(-c2cnc(-c3cc(C(C)=O)c(N)cc3F)c3c(N)noc23)cn1 (stereo not drawn) [Example 12(2), (2-(((1-(4-(5-(5-acetyl-4-amino-2-fluorophenyl)-3-aminoisoxazolo[4,5-c]pyridin-7-yl)-1H-pyrazol-1-yl)ethoxy)carbonyl)(methyl)amino)pyridin-3-yl)methyl methylglycinate]
– | + + + | + + + | CNCC(=O)OCc1cccnc1N(C)C(=O)OCn1cc(-c2cnc(-c3cc(C(C)=O)c(N)cc3F)c3c(N)noc23)cn1.Cl [Example 12(3), 2-((2-((((4-(4-(5-acetyl-4-amino-2-fluorophenyl)-3-aminoisoxazolo[4,5-c]pyridin-7-yl)-1H-pyrazol-1-yl)methoxy)carbonyl)(methyl)amino)pyridin-3-yl)methoxy)-N-methyl-2-oxoethane-1-ammonium chloride]
– | + + + | + + + | CC(=O)c1cc(-c2ncc(-c3cnn(COC(=O)OCCN4CCOCC4)c3)c3onc(N)c23)c(F)cc1N.Cl [Example 12(4), (4-(4-(5-acetyl-4-amino-2-fluorophenyl)-3-aminoisoxazolo[4,5-c]pyridin-7-yl)-1H-pyrazol-1-yl)methyl (2-morpholinoethyl)carbonate hydrochloride]
– | + + + | + + + | CC(=O)c1cc(-c2ncc(-c3cnn(COC(=O)OC[C@H]4OC(O)[C@H](O)[C@@H](O)[C@@H]4O)c3)c3onc(N)c23)c(F)cc1N (stereo partly drawn) [Example 12(5), (4-(4-(5-acetyl-4-amino-2-fluorophenyl)-3-aminoisoxazolo[4,5-c]pyridin-7-yl)-1H-pyrazol-1-yl)methyl (((2R,3S,4S,5R)-3,4,5,6-tetrahydroxytetrahydro-2H-pyran-2-yl)methyl) carbonate]
– | + + + | + + + | CC(=O)c1cc(-c2ncc(-c3cnn(COC(=O)OC[C@H]4OC(O)[C@H](N)[C@@H](O)[C@@H]4O)c3)c3onc(N)c23)c(F)cc1N.Cl (stereo partly drawn) [Example 12(6), (4-(4-(5-acetyl-4-amino-2-fluorophenyl)-3-aminoisoxazolo[4,5-c]pyridin-7-yl)-1H-pyrazol-1-yl)methyl (((2R,3S,4R,5R)-5-amino-3,4,6-trihydroxytetrahydro-2H-pyran-2-yl)methyl) carbonate hydrochloride]
– | + + + | + + + | COC(=O)n1cc(-c2cnc(-c3cc(C(C)=O)c(N)cc3F)c3c(N)noc23)cn1 [Example 12(10), methyl 4-(4-(5-acetyl-4-amino-2-fluorophenyl)-3-aminoisoxazolo[4,5-c]pyridin-7-yl)-1H-pyrazole-1-carboxylate]

SMILES | EC50 [1] | Plasma conversion rate Mouse [2] | Plasma conversion rate Human [3]
CC(=O)c1cc(-c2ncc(-c3cnn(COC(=O)N(C)c4ncccc4COP(=O)(O)O)c3)c3onc(N)c23)c(F)cc1N [Example 12(1), (4-(5-(5-acetyl-4-amino-2-fluorophenyl)-3-aminoisoxazolo[4,5-c]pyridin-7-yl)-1H-pyrazol-1-yl)methyl methyl(3-((phosphonooxy)methyl)pyridin-2-yl)carbamate] | – | + (the conversion rate of each example compound in the table to Compound B is less than 25%) | + +
CC(=O)c1cc(-c2ncc(-c3cnn(C(=O)NCC(=O)O)c3)c3onc(N)c23)c(F)cc1N [Example 12(9), (4-(4-(5-acetyl-4-amino-2-fluorophenyl)-3-aminoisoxazolo[4,5-c]pyridin-7-yl)-1H-pyrazole-1-carbonyl)glycine] | – | + (the conversion rate of each example compound in the table to Compound B is less than 25%) | + (the conversion rate of each example compound in the table to Compound B is less than 25%)
CC(=O)c1cc(-c2ncc(-c3cnn(COP(=O)(O)OCOC(=O)OC(C)C)c3)c3onc(N)c23)c(F)cc1N [Example 12(11), ((((4-(4-(5-acetyl-4-amino-2-fluorophenyl)-3-aminoisoxazolo[4,5-c]pyridin-7-yl)-1H-pyrazol-1-yl)methoxy)(hydroxy)phosphoryl)oxy)methyl isopropyl carbonate] | – | + (the conversion rate of each example compound in the table to Compound B is less than 25%) | + (the conversion rate of each example compound in the table to Compound B is less than 25%)
CC(=O)c1cc(-c2ncc(-c3cnn(COC(=O)N4CCC(N5CCCCC5)CC4)c3)c3onc(N)c23)c(F)cc1N [Example 12, (4-(4-(5-acetyl-4-amino-2-fluorophenyl)-3-aminoisoxazolo[4,5-c]pyridin-7-yl)-1H-pyrazol-1-yl)methyl [1,4′-bipiperidine]-1′-carboxylate] | – | + (the conversion rate of each example compound in the table to Compound B is less than 25%) | + (the conversion rate of each example compound in the table to Compound B is less than 25%)
